Measurements as given in patent publication US10308592B2 (priority 2014, dated 2019).
Where two headings read alike, the source gives them in different places.

Key:
[1] = test system: rat; details: in vivo
[2] = test system: rat; details: in vivo; cited from earlier work
[3] = male, Sprague-Dawley, rat
[4] = physchem
[5] = test system: male Sprague-Dawley rats; details: rat, in vivo
[6] = in vivo; details: rat, po, 300 mg/kg
[7] = test system: rats; details: rat, in vivo, po, 300 mg/kg
[8] = test system: mouse; details: in vivo, inhaled or intranasal
[9] = test system: mouse; details: in vivo; cited from earlier work

Q: Which “LC50 (LD50) data - inhalation” value [1] does the source give for COC(F)(F)C(F)C(F)(F)F (centres unmarked) [301-monohydride, CF3CFHCF2OCH3] here?
A: Its value is “LC50 >10,000 ppm”.

Q: And the “NOAEL/NOEL data: NOAEL by inference” value ([1]; inhaled or intranasal)?
A: Its value is <10,000 ppm (rat.

Q: With FC(F)C(F)(F)OCC(F)(F)F [AE-3000, CF3CH2OCF2CF2H] as the molecule, how does the “LC50 (LD50) data - inhalation” value [2] read?
A: The value was “LC50 3010 ppm”.

Q: With COC(F)(F)C(F)N1C(F)(F)C(F)(F)OC(F)(F)C1(F)F (centres unmarked) [Example 1, 2,2,3,3,5,5,6,6-octafluoro-4-(1,2,2-trifluoro-2-methoxy-ethyl)morpholine] as the molecule, how does the “Acute Vapor Hazard Ratio” value [3] read?
A: The value was 4.

Q: What about the chromatographic logP [4] of the same molecule?
A: Its chromatographic logP is 4.46.

Q: What about the “LC50 (LD50) data - inhalation” value ([5]; male, Sprague-Dawley) of the same molecule?
A: Its value is “LC50 >5000 ppm”.

Q: What about the “4 hour LC-50” value [5] of the same molecule?
A: Its value is > 5000 ppm (v/v).

Q: What about the “Clinical observations, body or organ weight effects” value [5] of the same molecule?
A: Its value is “no significant clinical observations or body or organ weight effects were noted”.

Q: And the “Survival and appearance during 14 day post dose recovery period” value [5]?
A: Its value is “All animals survived and appeared normal”.

Q: What about the “NOAEL (No Observable Adverse Effect Level)” value ([5]; inhaled or intranasal) of the same molecule?
A: Its value is > 5000 ppm (v/v).

Q: And the “NOAEL/NOEL data: NOEL” value ([5]; inhaled or intranasal)?
A: Its value is “NOEL >5000 ppm”.

Q: Which LD50 [6] does the source give for FC(F)C(F)(F)COC(F)(F)C(F)N1C(F)(F)C(F)(F)OC(F)(F)C1(F)F (centres unmarked) [Example 2, 2,2,3,3,5,5,6,6-octafluoro-4-[1,2,2-trifluoro-2-(2,2,3,3-tetrafluoropropoxy)ethyl]morpholine] here?
A: The LD50 was over 300 mg/kg.

Q: What about the “Adverse clinical observations during post dose recovery period” value [7] of the same molecule?
A: Its value is “No adverse clinical observations were noted”.

Q: What about the Necropsy results [7] of the same molecule?
A: The Necropsy results was “normal for all animals”.

Q: For CC(OC(F)(F)C(F)C(F)(F)F)C(F)(F)C(F)C(F)(F)F (centres unmarked) [Novec 7600, CF3CFHCF2CH(CH3)OCF2CFHCF3], which “NOAEL/NOEL data: NOEL” value ([1]; inhaled or intranasal) is on record?
A: Its value is 29d) <500 ppm.

Q: For COC(F)(F)C(C(F)(F)F)C(F)(F)F [OIME, (CF3)2CHCF2OCH3], which “NOAEL/NOEL data: NOAEL by inference” value [8] is on record?
A: The value was <660 ppm (mouse,.

Q: And the “LC50 (LD50) data - inhalation” value [9]?
A: Its value is “LC50 660 ppm”.
